# In US6841563B1, “Aryloxy propanolamines for improving livestock production” (Eli Lilly and Company, priority 1999, dated 2005):
# Legend:
# [1] = 28-day cattle study, orally administered Compound 6: growth and carcass measurements; type: in vivo; conditions: for Feed efficiency / Yield grade (YG) / area of the longissimus dorsi muscle at the twelfth rib: oral, 28 days
# Experimental: Thirty-two Angus crossbred steers were blocked by weight into a heavy (4 heaviest blocks, avg. initial BW=1226 lb. (557 kg)) and a light (4 lightest blocks, avg. initial BW=1164 lb. (528 kg)) replication. The steers within each block were assigned to one of four treatments (8 steers/treatment) to investigate the effects of orally administered Compound 6 on the growth and carcass measurements when fed to cattle for 28 days immediately prior to slaughter. The treatments included a CONTROL (0.0 mg Compound 6 per kg BW), and three levels of Compound 6 (LOW, 0.125 mg Compound 6 per kg BW; MED, 0.250 mg Compound 6 per kg BW; HIGH, 0.500 mg Compound 6 per kg BW). Compound 6 was mixed with ground corn and fed to the steers as a top dress on a portion of their daily feed. The CONTROL steers received a similar amount of a ground corn top dress. The steers were required to consume the initial feed and top dress before the remaining amount of feed was issued. The basal ration was a commercially available feed (19.3% CP, DM basis). Both feed and water were available ad libitum. The steers were individually housed in 12 ft×48 ft pens equipped with an individual feed bunk and automatic waterer. On day 28 the steers were weighed and a blood sample collected prior to being shipped for slaughter and subsequent carcass evaluation.
# [2] = Intravenous administration to cattle: serum non-esterified fatty acid (NEFA) and serum urea nitrogen (SUN) levels; type: in vivo
# Excerpt: Intravenous administration of the compounds of the present invention to cattle increases serum non-esterified fatty acids and decreases serum urea. In this Example, angus/angus cross calves, both heifers and steers, weighing approximately 282 pounds (128 kg) initially to 788 pounds (357.8 kg) over the course of these studies, were placed in pens at 5 calves per pen. The cattle were acclimated to the pens for at least 1 week prior to initiating the study.
# Calves were fed ad libitum twice daily, (approximately 6-15 pounds (2.7-6.8 kg)/day). During the treatment day, in the A.M. period, the feeding times were staggered to ensure that all animals were fed approximately one hour before the treatments were administered. During the P.M. treatment period, the cattle were fed immediately after receiving the P.M. injection.
# After taking a pretreatment (T=O) blood sample from each animal, a 40 μg per kilogram dose of a test compound was administered intravenously in the jugular vein at 6:30 A.M. and 2:30 P.M. Each test compound was administered at a concentration of 1.00-1.25 mg/ml in a treatment vehicle that was a 50/50 mixture of polyethylene glycol 200/water.
# A blood sample was taken at fifteen minutes post-treatment (T+15 min). The calves were returned to their respective pens until their next treatment, approximately eight hours later. The next morning at 6:30 A.M. a blood sample was collected from all calves at 24 hours post-treatment (T+24 h). All blood samples were analyzed for the non-esterified fatty acid level (NEFA) and serum urea nitrogen level (SUN). The post-treatment NEFA and SUN levels in each individual animal were compared with the levels found before treatment.
structure (smiles),measurement,setting,value
"CC(C)(Cc1ccc(Oc2ncccc2C(N)=O)cc1)NC[C@H](O)COc1cccc2[nH]ccc12 [Compound 6, (S)-2-[4-[2-[2-Hydroxy-3-(1H-indol-4-yloxy)propylamino]-2-methylpropyl]-phenoxy]-3-pyridinecarboxamide]",Conformation score,"[1]; Compound 6 treatments vs CONTROL, P<0.005",higher
same,Fat thickness at the twelfth rib,"[1]; Compound 6 treatments vs CONTROL, P>0.78",not different
same,Dressing percent,"[1]; Compound 6 treatments vs CONTROL, F-test P=0.1138, Treatment P<0.05",to be higher
same,Feed efficiency,"[1]; HIGH, 0.500 mg per kg BW",4.18 pound of feed per pound of gain
same,Yield grade (YG),"[1]; HIGH, 0.500 mg per kg BW",2.46
same,area of the longissimus dorsi muscle at the twelfth rib,"[1]; HIGH, 0.500 mg per kg BW",14.5 in^2
same,Feed efficiency,"[1]; LOW, 0.125 mg per kg BW",4.36 pound of feed per pound of gain
same,area of the longissimus dorsi muscle at the twelfth rib,"[1]; LOW, 0.125 mg per kg BW",13.5 in^2
same,Yield grade (YG),"[1]; LOW, 0.125 mg per kg BW, lower value = more saleable meat",2.76
same,Feed efficiency,"[1]; MED, 0.250 mg per kg BW",4.19 pound of feed per pound of gain
same,Yield grade (YG),"[1]; MED, 0.250 mg per kg BW",2.51
same,area of the longissimus dorsi muscle at the twelfth rib,"[1]; MED, 0.250 mg per kg BW",14.3 in^2
same,"carcass composition (% fat, % protein, % moisture, % bone)","[1]; among the treatments, P>0.12, calculated by Hankins and Howe equations",did not differ statistically
same,USDA quality grade and marbling scores,"[1]; among the treatments, P>0.90",Neither the USDA quality grade nor marbling scores differed
same,Daily dry matter intake,"[1]; between the treatments (CONTROL, LOW, MED, HIGH), P>0.47",did not differ
same,ΔNEFA 24 Hours,"[2]; 40 μg per kilogram i.v. twice, T+24 h minus T=0, mean of five animals",-1.44 µmol/L
same,ΔNEFA 15 Min.,"[2]; 40 μg per kilogram i.v., T+15 min minus T=0, mean of five animals",40.7 µmol/L
same,change in vivo at 0.04 mg/kg,"[2]; Bos taurus, iv, 40 μg per kilogram i.v. twice, 24 hours post treatment vs baseline T=0, mean of five animals, read-out: Δ% SUN 24 Hours",-47%
same,lipolytic effects (non-esterified fatty acid levels),[2]; fifteen minutes and twenty-four hours after administration,modest lipolytic effects
same,anabolic effects (change in serum urea nitrogen levels),"[2]; twenty-four hours after administration, compared with the corresponding carboxamide regioisomers",significantly greater
